Read-outs that look alike come from different tables or passages of the source. Ends that are not written are not given here.
Key:
[1] = biological target: T1, purified H-2 D^b molecules (Mus musculus, UniProt P01899); assay: MHC peptide-binding assay, purified H-2 D^b
T1 construct: made in house
Method: (§1) Briefly, 0.1-1 nM of radiolabeled peptide was co-incubated at room temperature with 1 μM to 1 nM of purified MHC in the presence of 1-3 μM human β2-microglobulin (Scripps Laboratories) and a mixture of protease inhibitors. After a 2 day incubation, binding of the radiolabeled peptide to the corresponding MHC class I molecule was determined by capturing MHC/peptide complexes on Lumitrac 600 microplates (Greiner Bio-One) coated with either the Y3 (anti-H-2 K^b) or 28-14-8S (anti-H-2 D^b, L^d and D^q) Ab, followed by measurement of bound counts per minute (cpm) using the TopCount microscintillation counter (Packard).

CD8^+ T cells [2] = assay: IFN-γ ELISPOT with CD8^+ T cells of DENV2-infected C57BL/6 mice; assay type: cell-based; details: PL046 or S221 infected C57BL/6 mice
[3] = biological target: T2, purified H-2 K^b molecules (Mus musculus, UniProt P01901); assay: MHC peptide-binding assay, purified H-2 K^b
T2 construct: made in house
T2 sequence (P61769 21-119): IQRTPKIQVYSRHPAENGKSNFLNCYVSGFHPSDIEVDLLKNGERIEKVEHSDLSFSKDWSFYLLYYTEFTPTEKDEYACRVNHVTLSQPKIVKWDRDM
T2 sequence (P01901 22-369): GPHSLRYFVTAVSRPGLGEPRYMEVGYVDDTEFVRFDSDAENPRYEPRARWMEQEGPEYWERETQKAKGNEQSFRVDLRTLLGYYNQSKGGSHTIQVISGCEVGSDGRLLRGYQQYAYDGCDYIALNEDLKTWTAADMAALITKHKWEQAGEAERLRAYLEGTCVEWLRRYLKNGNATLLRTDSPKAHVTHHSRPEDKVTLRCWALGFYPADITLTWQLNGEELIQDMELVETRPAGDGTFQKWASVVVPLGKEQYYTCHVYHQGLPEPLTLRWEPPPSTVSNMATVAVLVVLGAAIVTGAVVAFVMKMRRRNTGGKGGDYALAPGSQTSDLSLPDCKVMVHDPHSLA
Method: as §1, with “MHC purification and quantitative assays to measure the binding affinity of peptides to purified H-2 K^b and H-2 D^b molecules were performed as previously described (Sidney et al., Curr Protoc Immunol 18:1813 2001); Vitiello et al., J Immunol 157:5555 (1996)). Briefly,” for “Briefly,”
To confirm the MHC class I restriction of the 12 identified epitopes, measurements were performed of their MHC binding capacity using purified K^b and D^b molecules in an in vitro binding assay. Seven of the 12 epitopes bound the predicted allele with either high or intermediate affinity, as indicated by an IC50 of <50 nM or <500 nM, respectively. The five remaining epitopes also bound with biologically relevant affinities in the 500-2000 nM range.

CD8^+ T cells [4] = assay: IFN-γ ELISPOT, HLA A*0201 transgenic mice; assay type: cell-based; details: HLA-A*0201-restricted Jurkat cells as APC, peptide 1 μg/ml, day 7 after 10^11 GE S221
Method: The proteome of the DENV2 strain, S221, was inspected for the presence of peptides predicted to bind HLA A*0201 with high affinity. A total of 68 potential H-2^b binding peptides were identified. HLA A*0201 transgenic mice were infected i.v. with 10^11 GE of the DENV2 strain, S221. Seven days post-infection, splenocytes were harvested and CD8^+ T cells isolated. CD8^+ T cells (1.75×10^5) were stimulated with HLA-A*0201-restricted Jurkat cells and 1 μg/ml of individual S221-derived A*02-predicted binding peptides, and IFN-γ ELISPOT was performed. The data are expressed as the mean number of net spot-forming cells (SFC) per 10^6 CD8^+ T cells. The top 20 predicted epitopes, which includes the two positive peptides identified (indicated with an asterisk), are shown. The criteria for positivity were a stimulation index of ≧2.0, p<0.05 when compared with an irrelevant control peptide, and net SFC/10^6 cells of ≧20.
The proteome of the DENV2 strain, S221, was inspected for the presence of peptides predicted to bind HLA A*0201 with high affinity. A total of 68 potential H-2^b binding peptides were identified. HLA A*0201 transgenic mice were infected intravenously (i.v.) with 10^11 GE of the DENV2 strain, S221. […] Referring to FIG. 11, the data are expressed as the mean number of net spot-forming cells (SFC) per 10^6 CD8^+ T cells. […]

CD8^+ T cells [5] = assay: Intracellular cytokine staining (IFN-γ), splenocytes of S221-infected IFN-α/βR^−/− mice; assay type: cell-based; details: day 7 after 10^10 GE S221
Method: (§2) All Ab were purchased from eBioscience with the exception of anti-CD8α-PerCP and anti-CD107a-FITC which were obtained from BD Biosciences. RBC in blood were lysed using RBC lysis buffer (eBioscience). For surface staining, splenocytes or blood cells were washed, incubated with supernatant from 2.4G2-producing hybridoma cells to block Fc receptors, and labeled with anti-CD8α-PerCP, anti-CD44-APC, and anti-CD62L-PE. For intracellular cytokine staining, 10^6 splenocytes or 10^5 blood cells were plated in 96-well U-bottom plates and stimulated with individual DENV peptides (0.1 μg/ml) in the presence of brefeldin A (GolgiPlug, BD Biosciences) for 5 h. For CD107a staining, CD107a-FITC (or rat IgG2a-FITC) was added to the wells at the same time as the peptide. Cells were washed, incubated with 2.4G2 supernatant, labeled with anti-CD8α-PerCP, fixed and permeabilized using the BD Cytofix/Cytoperm Kit, and stained with anti-IFN-γ-APC and anti-TNF-α-PE. Samples were read on a FACS Caliber (BD Biosciences) and analyzed using FloJo software (Tree Star, Inc.)
The S221-specific CD8^+ T cell response in the IFN-α/βR^−/− mice was studied. […]
The S221-specific CD8^+ T cell response in IFN-α/βR^−/− mice was further studied. […] Referring to FIGS. 5C, 5E and 5F, the number of splenic CD8^+ T cells in naïve (n=4) and infected (n=7) mice was measured (results described above). […] The data are expressed as the percent±SEM of seven mice tested in three independent experiments.
The initial epitope identification studies were performed in wild-type mice. […] Cells were then stained for surface CD8 and intracellular IFN-γ and analyzed by flow cytometry. […] Results are expressed as the mean±SEM of 13 wild-type and 7 IFN-α/βR^−/− mice were tested in at least three independent experiments. Referring FIGS. 8C and D, the figures show kinetics of the DENV-specific CD8^+ T cell response as determined by the study. […]

CD8^+ T cells [6] = assay: Intracellular cytokine staining (IFN-γ), splenocytes of S221-infected wild-type mice; assay type: cell-based, C57BL/6 mice; details: wild-type C57BL/6, day 7 after 10^11 GE S221, peptide 0.1 μg/ml, 5 h
Method: as §2
To confirm that the IFN-γ response to the MHC class I-binding DENV peptides was mediated by CD8^+ T cells, intracellular cytokine staining (ICS) on CD8^+ T cells isolated from S221-infected wild-type mice was performed. Splenocytes were harvested from C57BL/6 mice 7 days after infection with 10^11 genomic equivlalents (GE) S221 and were re-stimulated in vitro with individual DENV2 peptides or an irrelevant peptide (irr) at 0.1 μg/ml in the presence of brefeldin A for 5 h. Cells were then stained for surface CD8 and intracellular IFN-γ and analyzed by flow cytometry. […] The percent of CD8^+ T cells producing IFN-γ is indicated. Referring to FIG. 2B, the figure is a summary of the DENV2-specific CD8^+ IFN-γ^+ response. The response to the irrelevant control peptide was subtracted from the responses to each DENV2 peptide. Each symbol represents one mouse and the bar represents the geometric mean. The identification of the 12 positive peptides for S221 was confirmed by the intracellular cytokine staining (ICS) (FIG. 2A), and the response to the 8 most dominant peptides was determined (FIG. 2B). The responses ranged from 0.14% recognizing NS2A 36 to 9.8% of CD8^+ T cells recognizing NS4B 99.
Splenocytes were harvested from naïve C57BL/6 mice or mice 7 days after infection with 10^11 GE of S221. The percent of CD8^+ T cells expressing CD44 and CD62L was determined in four independent studies (FIG. 3A). On day 7 after infection, splenocytes were stimulated with the eight major DENV2 peptides (individually; at 0.1 μg/ml) in the presence of brefeldin A, and stained for surface CD8 and intracellular IFN-γ. The percent of CD8^+ T cells producing IFN-γ in response to the irrelevant control peptide was subtracted from the response to each DENV2 peptide to determine the net response. The net responses to the eight major DENV2 peptides were added to determine the percent of DENV2-specific CD44^hi, CD62^lo, and CD44^hiCD62L^lo CD8^+ T cells (FIG. 3B). The data are expressed as the mean percent±SEM of 11-14 mice tested in at least four independent experiments.

[7] = tested on: DENV peptide-pulsed target cells; assay: In vivo cytotoxicity assay; details: IFN-α/βR^−/− mice infected 7 days previously with 10^10 GE S221; 4 h after i.v. transfer; targets pulsed 0.5 μg/ml
CD8^+ T cells [8] = assay: TNF-α and CD107a staining after peptide re-stimulation; assay type: cell-based, wild-type or IFN-α/βR^−/− mice; details: splenocytes day 7 after S221 infection
Method: as §2
Because polyfunctional CD8^+ T cell responses are associated with protection (Harari et al., Immunol Rev 211:236 (2006)), the phenotype of the DENV-specific CD8^+ T cells in wild-type and IFN-α/βR^−/− mice was studied in more detail by measuring CD107a expression (CD107a, or LAMP-1, is expressed on the cell surface upon degranulation) and TNF-α production for two of the DENV-specific CD8^+ T cell populations, as described above. To collect the data, splenocytes harvested from wild-type or IFN-α/βR^−/− mice 7 days after infection with 10^11 or 10^10 GE of S221, respectively, were re-stimulated in vitro with C51-59, NS4B99-107, or an irrelevant peptide. An anti-CD107a Ab was added for the duration of the stimulation. Cells were then stained for surface CD8, intracellular IFN-γ and TNF-α, and analyzed by flow cytometry.

[9] = purified MHC, radiolabeled peptide competition, read-out: Binding affinity (IC50 nM) H2-D^b
[10] = purified MHC, radiolabeled peptide competition, read-out: Binding affinity (IC50 nM) H2-K^b

T1 sequence (P61769 21-119): as the sequence (P61769 21-119) above
T1 sequence (P01899 25-362): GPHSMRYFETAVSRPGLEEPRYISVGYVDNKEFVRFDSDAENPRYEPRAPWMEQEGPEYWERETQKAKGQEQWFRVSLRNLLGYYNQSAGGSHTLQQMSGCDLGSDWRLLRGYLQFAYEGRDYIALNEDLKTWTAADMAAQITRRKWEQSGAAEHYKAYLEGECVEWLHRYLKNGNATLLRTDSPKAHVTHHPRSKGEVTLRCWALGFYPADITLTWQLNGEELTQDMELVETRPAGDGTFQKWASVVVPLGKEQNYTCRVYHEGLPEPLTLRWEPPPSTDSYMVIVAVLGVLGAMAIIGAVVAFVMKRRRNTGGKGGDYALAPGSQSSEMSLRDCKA

Sequence	IC50 [1, 9]	IFN-γ ELISPOT response (net SFC per 10^6 CD8^+ T cells), in words (CD8^+ T cells [2])	IC50 [3]	IC50 [3, 10]	also measured
FSLGVLGM [NS2A8-15]	1800 nM	highest responses	> 2000 nM		
GMLQGRGPL [Epitope C36-44]	820 nM			1340 nM	
KLAEAIFKL (listed as Dengue virus)					IFN-γ ELISPOT positivity (CD8^+ T cells [4]): positive
LAVTIMAIL [NS2A145-153]	644 nM		> 2000 nM		
MTMRCIGI [Epitope E-2-6]		highest responses		1080 nM	IC50 [1]: > 2000 nM
RALIFILL [Epitope M60-67]				22 nM	% of splenic CD8^+ T cells recognizing the peptide (CD8^+ T cells [5]): 11%; IC50 [1]: > 2000 nM; percent of CD8^+ T cells producing IFN-γ / recognizing the peptide (CD8^+ T cells [6]): 0.4%
RLITVNPIV					IFN-γ ELISPOT positivity (CD8^+ T cells [4]): positive
RMLINRFTM [NS5237-45]	21 nM	highest responses	> 2000 nM		percentage killing of peptide-pulsed target cells [7]: 46%
TAIANQATV [NS4B66-74]	1.3 nM		> 2000 nM		
VAFLRFLTI [Epitope C51-59]	1380 nM	highest responses		20 nM	CD107a surface expression (degranulation) (CD8^+ T cells [8]): expressed CD107a on the surface; TNF-α production by peptide-specific CD8^+ T cells (CD8^+ T cells [8]): produced TNF-α
VAVSFVTLI [NS2A36-44]	997 nM			12 nM	percent of CD8^+ T cells producing IFN-γ / recognizing the peptide (CD8^+ T cells [6]): 0.14%
VSWTMKIL [Epitope E451-458]					IC50 [1]: > 2000 nM

— patent US20110150914A1, “COMPOSITIONS AND METHODS FOR DENGUE VIRUS (DV) TREATMENT AND VACCINATION” (priority 2008, published 2011)
